# Results from US20030220361A1, “Nicotinamide derivatives and a tiotropium salt in combination for the treatment of diseases” (priority 2002, published 2003).
# Test system: TNFα release from human peripheral blood mononuclear cells
# Experiment: Inhibition of LPS-stimulated TNFα release from human peripheral blood mononuclear cells (TNFα screen)
# Type: cell-based
# Details: human PBMC, LPS stimulation, 18 hours incubation, TNFα in supernatant by ELISA
# Protocol: Venous blood is collected from healthy volunteers and the mononuclear cells purified by centrifugation through Histopaque (Ficoll) cushions. TNFα production from these cells is stimulated by addition of lipopolysaccharide. After 18 hours incubation in the presence of LPS, the cell supernatant is removed and the concentration of TNFa in the supernatant determined by ELISA. Addition of PDE4 inhibitors reduces the. amount of TNFQ produced. An IC50 is determined which is equal to the concentration of compound that gives 50% inhibition TNFα production as compared to the LPS stimulated control wells.
row,Structure (SMILES),IC50
1,"O=C(N[C@H]1C[C@H]2CC[C@@H](C1)N2C(=O)Cc1ccc(O)cc1)c1cc(F)cnc1Oc1ccc(F)cc1 [Example 92, endo-5-Fluoro-2-(4-fluoro-phenoxy)-N-{8-[2-(4-hydroxy-phenyl)-acetyl]-8-aza-bicyclo[3.2.1]oct-3-yl}-nicotinamide]",185 nM
2,"O=C(O)c1ccccc1C(=O)N1[C@@H]2CC[C@H]1C[C@H](NC(=O)c1cc(F)cnc1Oc1ccc(F)cc1)C2 [Example 100, exo-2-(3-{[5-Fluoro-2-(4-fluoro-phenoxy)-pyridine-3-carbonyl]-amino}8-aza-bicyclo[3.2.1]octane-8-carbonyl}-benzoic Acid]",56 nM
3,O=C(N[C@H]1CC[C@H](NC(=O)c2cc(F)cnc2Oc2ccc3c(c2)OCO3)CC1)c1ccc(O)cc1 [Example 6],23.5 nM
4,COc1ccc(C(=O)N[C@H]2CC[C@H](NC(=O)c3cc(F)cnc3Oc3ccc(F)cc3)CC2)c(O)c1 [Example 23],7.8 nM
5,Cc1ccc(C(=O)N[C@H]2CC[C@@H](NC(=O)c3cc(F)cnc3Oc3ccc(F)c(Cl)c3)CC2)c(O)c1 [Example 200],0.05 nM
6,COc1ccc(O)c(C(=O)N[C@H]2CC[C@@H](NC(=O)c3cc(F)cnc3Oc3ccc(F)c(F)c3)CC2)c1 [Example 187],0.006 nM
7,"O=C(N[C@H]1CC[C@@H](C(=O)NCc2ccc(O)cc2F)CC1)c1cccnc1Oc1ccc(F)cc1 [Example 173, Syn-N-[4-(2-Fluoro-4-hydroxy-benzyl-carbamoyl)-cyclohexyl]-2-(4-fluoro-phenoxy)-nicotinamide]",2.1 nM

# The remaining compounds from weak to strong by IC50, led by results:
row,IC50,Structure (SMILES)
1,28 nM,O=C(NC1CCN(C(=O)c2cc(F)ccc2O)CC1)c1cc(F)cnc1Oc1ccc(F)cc1 [Example 85]
2,13 nM,Cc1cccc(C(=O)NC2CCC(NC(=O)c3cc(F)cnc3Oc3ccc(Cl)c(F)c3)CC2)c1O (stereo not shown) [Example 210]
3,1.8 nM,COc1cccc(Oc2ncc(F)cc2C(=O)N[C@H]2CC[C@@H](NC(=O)c3ccc(OC)cc3O)CC2)c1 [Example 197]
4,0.3 nM,Cc1ccc(O)c(C(=O)N[C@H]2CC[C@@H](NC(=O)c3cc(F)cnc3Oc3cccc(C4CC4)c3)CC2)c1 [Example 204]
5,0.3 nM,Cc1ccc(C(=O)N[C@H]2CC[C@@H](NC(=O)c3cc(F)cnc3Oc3cccc(Br)c3)CC2)c(O)c1 [Example 201]
6,0.2 nM,Cc1ccc(O)c(C(=O)NC2CCC(NC(=O)c3cc(F)cnc3Oc3cccc(F)c3)CC2)c1 (stereo not shown) [Example 213]
7,0.14 nM,COc1ccc(C(=O)N[C@H]2CC[C@@H](NC(=O)c3cc(F)cnc3Oc3ccc(F)c(Cl)c3)CC2)c(O)c1 [Example 156]
8,0.07 nM,O=C(N[C@H]1CC[C@@H](NC(=O)c2cc(F)cnc2Oc2ccc(F)c(F)c2)CC1)c1cc(CO)ccc1O [Example 183]
9,0.014 nM,"Cc1ccc(O)c(C(=O)N[C@H]2CC[C@@H](NC(=O)c3cc(F)cnc3Oc3ccc(F)c(F)c3)CC2)c1 [Example 174, Syn-2-(3.4-Difluoro-phenoxy)-5-fluoro-N-[4-(2-hydroxy-5-methyl-benzoylamino)-cyclohexyl]-nicotinamide]"
